Results reported in patent US4248887A, “Antibacterial compounds, processes for their preparation and compositions containing them” (priority 1978, dated 1981).
≈ marks a conversion by molar mass, not a printed value. Read-outs that look alike come from different tables or passages of the source.

Tests used:
M. suipneumoniae Str. 11 = assay: Anti-mycoplasma MIC; assay type: cell-based; settings: Mesomycoplasma hyopneumoniae
[1] = tested on: M. suipneumoniae J2206/183b; assay: Anti-mycoplasma MIC; assay type: cell-based; settings: Mesomycoplasma hyopneumoniae, J2206/183B
M. dispar H225 = assay: Anti-mycoplasma MIC; assay type: cell-based; settings: M. dispar H225; Broth (Friis' broth, microtiter method); read-out: MIC
M. dispar NCTC 10125 = assay: Anti-mycoplasma MIC; assay type: cell-based; settings: M. dispar NCTC 10125; Broth (Friis' broth, microtiter method); read-out: MIC
M. pneumoniae 427a = assay: Anti-mycoplasma MIC; assay type: cell-based; settings: Mycoplasmoides pneumoniae, read-out: MIC
M. pneumoniae ATCC 15492 = assay: Anti-mycoplasma MIC; assay type: cell-based; settings: Mycoplasmoides pneumoniae, ATCC15492, M. pneumoniae ATCC 15492, read-out: MIC
M. bovis ATCC 25025 = assay: microbe, parasite or virus in culture; assay type: cell-based; settings: ATCC25025
M. bovis NCTC 10131 = assay: microbe, parasite or virus in culture; assay type: cell-based; settings: NCTC10131
M. fermentans MWKL4 = assay: Anti-mycoplasma MIC; assay type: cell-based; settings: Mycoplasmopsis fermentans, read-out: MIC
M. pulmonis JB = assay: Anti-mycoplasma MIC; assay type: cell-based; settings: Mycoplasmopsis pulmonis, read-out: MIC
M. hyorhinis ATCC 23234 = assay: Anti-mycoplasma MIC; assay type: cell-based; settings: Mesomycoplasma hyorhinis, ATCC23234; M. hyorhinis ATCC 23234; Agar (serial dilution in Friis' agar); read-out: MIC
[2] = tested on: M. hyosynoviae ATCC 25591; assay: Anti-mycoplasma MIC; assay type: cell-based; settings: M. hyosynoviae ATCC 25591; Agar (serial dilution in Friis' agar); read-out: MIC
[3] = tested on: M. arthritidis ATCC 14124; assay: Anti-mycoplasma MIC; assay type: cell-based; settings: M. arthritidis ATCC 14124; Agar (serial dilution in Friis' agar); read-out: MIC
M. gallisepticum S6 = assay: Anti-mycoplasma MIC; assay type: cell-based; settings: Mycoplasmoides gallisepticum; M. gallisepticum S6; Agar (serial dilution in Friis' agar); read-out: MIC
M. synoviae ATCC 25204 = assay: Anti-mycoplasma MIC; assay type: cell-based; settings: Mycoplasmopsis synoviae, ATCC25204; M. synoviae ATCC 25204; Agar (serial dilution in Friis' agar); read-out: MIC
[4] = tested on: M. alkalescens NCTC 10135; assay: Anti-mycoplasma MIC; assay type: cell-based
[5] = tested on: M. bovigenitalium ATCC 14173; assay: Anti-mycoplasma MIC; assay type: cell-based; settings: M. bovigenitalium ATCC 14173; Agar (serial dilution in Friis' agar); read-out: MIC
Bord. bronchiseptica BO8 = assay: MIC against veterinary bacteria; settings: Bordetella bronchiseptica
Bord. bronchiseptica BO9 = assay: MIC against veterinary bacteria; settings: Bordetella bronchiseptica
Past. multocida PA1 = assay: MIC against veterinary bacteria; settings: Pasteurella multocida
Past. multocida PA2 = assay: MIC against veterinary bacteria; settings: Pasteurella multocida
Past. haemolytica PA5 = assay: MIC against veterinary bacteria; settings: Mannheimia haemolytica
[6] = tested on: Staph. aureus B4 (pen resistant); assay: MIC against veterinary bacteria; settings: Staphylococcus aureus
[7] = tested on: Staph. aureus 152 (pen sensitive); assay: MIC against veterinary bacteria; settings: Staphylococcus aureus
Strep. uberis SPU1 = assay: MIC against veterinary bacteria; settings: Streptococcus uberis
Strep. dysgalactiae SPD1 = assay: MIC against veterinary bacteria; settings: Streptococcus dysgalactiae
Strep. agalactiae SPA1 = assay: MIC against veterinary bacteria; settings: Streptococcus agalactiae
Past. multocida 1633 = assay: MIC by serial dilution in nutrient agar (human bacteria); settings: Pasteurella multocida
H. influenzae Q1 = assay: as above; settings: Haemophilus influenzae
H. influenzae Wy21 = assay: as above; settings: Haemophilus influenzae
B. subtilis = assay: as above; settings: Bacillus subtilis
Staph. aureus Oxford = assay: as above; settings: Staphylococcus aureus
Staph. aureus Russell = assay: as above; settings: Staphylococcus aureus
Strep. pyogenes A 64/848 = assay: as above; settings: Streptococcus pyogenes, A64/848
Strep. pyogenes B 2788 = assay: as above; settings: Streptococcus pyogenes, B2788
Strep. pyogenes C 2761 = assay: as above; settings: Streptococcus pyogenes, C2761
N. catarrhalis 1502 = assay: as above; settings: Neisseria
Strep. pneumoniae CN33 = assay: as above; settings: Streptococcus pneumoniae
[8] = Agar (serial dilution in Friis' agar)
[9] = Broth (Friis' broth, microtiter method)

With `C/C(=C\C(=O)OCCCCCCO)CC1OCC(C/C=C/C(C)C(C)O)C(O)C1O` (stereo not shown) [6-Hydroxyhexyl, 6-Hydroxyhexyl Monate C] the MIC (M. suipneumoniae Str. 11; M. suipneumoniae Str. 11, Broth (Friis' broth, microtiter method), read-out: MIC) was 0.625 mg/L (≈ 1.46 µM), the MIC [1] was 1.25 mg/L (≈ 2.92 µM) and the MIC (M. dispar H225) was 0.156 mg/L (≈ 0.364 µM). For the same compound, the MIC (M. dispar NCTC 10125) was 0.156 mg/L (≈ 0.364 µM), the MIC (M. pneumoniae 427a; [8]) was 1.25 mg/L (≈ 2.92 µM) and the MIC (M. pneumoniae 427a; [9]) was 0.625 mg/L (≈ 1.46 µM). The MIC (M. pneumoniae ATCC 15492; [8]) was 1.25 mg/L (≈ 2.92 µM), the MIC (M. pneumoniae ATCC 15492; [9]) was 0.625 mg/L (≈ 1.46 µM) and the MIC (M. bovis ATCC 25025) was < 0.02 mg/L. For the same compound, the MIC (M. bovis NCTC 10131) was < 0.02 mg/L, the MIC (M. fermentans MWKL4; [8]) was 0.078 mg/L (≈ 0.182 µM) and the MIC (M. fermentans MWKL4; [9]) was < 0.02 mg/L. For the same compound, the MIC (M. pulmonis JB; [8]) was 0.039 mg/L (≈ 0.091 µM), the MIC (M. pulmonis JB; [9]) was < 0.02 mg/L and the MIC (M. hyorhinis ATCC 23234) was 1.25 mg/L (≈ 2.92 µM). The MIC [2] was 0.078 mg/L (≈ 0.182 µM), the MIC [3] was 5 mg/L (≈ 11.7 µM) and the MIC (M. gallisepticum S6) was 10 mg/L (≈ 23.3 µM). For the same compound, the MIC (M. synoviae ATCC 25204) was < 0.02 mg/L, the MIC ([4]; M. alkalescens NCTC 10135, Agar (serial dilution in Friis' agar), read-out: MIC) was < 0.02 mg/L and the MIC [5] was 0.039 mg/L (≈ 0.091 µM). For the same compound, the MIC (Bord. bronchiseptica BO8) was > 80 mg/L, the MIC (Bord. bronchiseptica BO9) was 5 mg/L (≈ 11.7 µM) and the MIC (Past. multocida PA1) was 2.5 mg/L (≈ 5.83 µM). The MIC (Past. multocida PA2) was 2.5 mg/L (≈ 5.83 µM), the MIC (Past. haemolytica PA5) was 40 mg/L (≈ 93.3 µM) and the MIC [6] was 1.25 mg/L (≈ 2.92 µM). For the same compound, the MIC [7] was 1.25 mg/L (≈ 2.92 µM), the MIC (Strep. uberis SPU1) was 0.312 mg/L (≈ 0.728 µM) and the MIC (Strep. dysgalactiae SPD1) was 1.25 mg/L (≈ 2.92 µM). For the same compound, the MIC (Strep. agalactiae SPA1) was 5 mg/L (≈ 11.7 µM), the MIC (Past. multocida 1633) was 1 mg/L (≈ 2.33 µM) and the MIC (H. influenzae Q1) was 0.2 mg/L (≈ 0.467 µM). For the same compound, the MIC (H. influenzae Wy21) was 0.2 mg/L (≈ 0.467 µM), the MIC (B. subtilis) was 0.5 mg/L (≈ 1.17 µM) and the MIC (Staph. aureus Oxford) was 0.2 mg/L (≈ 0.467 µM). It also gave an MIC (Staph. aureus Russell) of 1 mg/L (≈ 2.33 µM), an MIC (Strep. pyogenes A 64/848) of 1 mg/L (≈ 2.33 µM) and an MIC (Strep. pyogenes B 2788) of 5 mg/L (≈ 11.7 µM). For the same compound, the MIC (Strep. pyogenes C 2761) was 5 mg/L (≈ 11.7 µM).
`C/C(=C\C(=O)OCC(C)C)CC1OCC(C/C=C/C(C)C(C)O)C(O)C1O` (stereo not shown) [Isobutyl, Isobutyl Monate C] gave an MIC (M. suipneumoniae Str. 11; STR.11) of 1.25 mg/L (≈ 3.25 µM), an MIC [1] of 1.25 mg/L (≈ 3.25 µM) and an MIC (M. dispar H225) of 0.312 mg/L (≈ 0.811 µM). For the same compound, the MIC (M. dispar NCTC 10125) was 0.312 mg/L (≈ 0.811 µM), the MIC (M. pneumoniae 427a; [8]) was 10 mg/L (≈ 26 µM) and the MIC (M. pneumoniae 427a; [9]) was 1.25 mg/L (≈ 3.25 µM). It also gave an MIC (M. pneumoniae ATCC 15492; [8]) of 10 mg/L (≈ 26 µM), an MIC (M. pneumoniae ATCC 15492; [9]) of 2.5 mg/L (≈ 6.5 µM) and an MIC (M. bovis ATCC 25025) of 0.156 mg/L (≈ 0.406 µM). The MIC (M. bovis NCTC 10131) was 0.156 mg/L (≈ 0.406 µM), the MIC (M. fermentans MWKL4; [8]) was 0.312 mg/L (≈ 0.811 µM) and the MIC (M. fermentans MWKL4; [9]) was 0.039 mg/L (≈ 0.101 µM). The MIC (M. pulmonis JB; [8]) was 0.078 mg/L (≈ 0.203 µM), the MIC (M. pulmonis JB; [9]) was < 0.02 mg/L and the MIC (M. hyorhinis ATCC 23234) was 2.5 mg/L (≈ 6.5 µM). For the same compound, the MIC [2] was 0.625 mg/L (≈ 1.63 µM), the MIC [3] was 5 mg/L (≈ 13 µM) and the MIC (M. gallisepticum S6) was > 10 mg/L. For the same compound, the MIC (M. synoviae ATCC 25204) was 0.078 mg/L (≈ 0.203 µM), the MIC [4] was 0.156 mg/L (≈ 0.406 µM) and the MIC [5] was 0.078 mg/L (≈ 0.203 µM). The MIC (Bord. bronchiseptica BO8) was > 80 mg/L, the MIC (Bord. bronchiseptica BO9) was 40 mg/L (≈ 104 µM) and the MIC (Past. multocida PA1) was 10 mg/L (≈ 26 µM). It also gave an MIC (Past. multocida PA2) of 10 mg/L (≈ 26 µM), an MIC (Past. haemolytica PA5) of 80 mg/L (≈ 208 µM) and an MIC [6] of 1.25 mg/L (≈ 3.25 µM). It also gave an MIC [7] of 1.25 mg/L (≈ 3.25 µM), an MIC (Strep. uberis SPU1) of 1.25 mg/L (≈ 3.25 µM) and an MIC (Strep. dysgalactiae SPD1) of 5 mg/L (≈ 13 µM). It also gave an MIC (Strep. agalactiae SPA1) of 10 mg/L (≈ 26 µM), an MIC (Past. multocida 1633) of 5 mg/L (≈ 13 µM) and an MIC (H. influenzae Q1) of 1 mg/L (≈ 2.6 µM). It also gave an MIC (H. influenzae Wy21) of 1 mg/L (≈ 2.6 µM), an MIC (N. catarrhalis 1502) of 1 mg/L (≈ 2.6 µM) and an MIC (B. subtilis) of 1 mg/L (≈ 2.6 µM). The MIC (Staph. aureus Oxford) was 0.5 mg/L (≈ 1.3 µM), the MIC (Staph. aureus Russell) was 1 mg/L (≈ 2.6 µM) and the MIC (Strep. pyogenes A 64/848) was 10 mg/L (≈ 26 µM). The MIC (Strep. pyogenes B 2788) was 25 mg/L (≈ 65 µM), the MIC (Strep. pyogenes C 2761) was 25 mg/L (≈ 65 µM) and the MIC (Strep. pneumoniae CN33) was 5 mg/L (≈ 13 µM).
